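Cultured in 96-well plates, cells were exposed to test compound for 48 hours across five concentrations. GI50 is the concentration that inhibits growth by half.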 Activity calls are given as the source filed them. No stated cut-off is given here; in the data, active = GI50 up to about 1.1 µM and inactive = higher.
Legend:
Assay in all cases: NCI tumour cell line growth inhibition, 48 h
NCI-H522 = tested on: NCI-H522
U-251 = tested on: U-251
Malme-3M = tested on: Malme-3M
OVCAR-3 = tested on: OVCAR-3
M14 = tested on: M14
OVCAR-4 = tested on: OVCAR-4
SF-295 = tested on: SF-295
HCT-116 = tested on: HCT-116
HCC 2998 = tested on: HCC 2998
SF-539 = tested on: SF-539
EKVX = tested on: EKVX
SK-MEL-5 = tested on: SK-MEL-5
HT-29 = tested on: HT-29
UO-31 = tested on: UO-31
SR = tested on: SR
UACC-62 = tested on: UACC-62
UACC-257 = tested on: UACC-257

Measured: GI50

CCc1ccccc1NC(=O)C(=O)CC(=O)c1sc(Nc2ccccc2)nc1C
inactive: NCI-H522 73.5 µM | U-251 > 100 µM | Malme-3M > 100 µM | OVCAR-3 80.5 µM | M14 > 100 µM | OVCAR-4 > 100 µM | SF-295 > 100 µM | HCT-116 > 100 µM | HCC 2998 > 100 µM | SF-539 > 100 µM | EKVX 29.4 µM | SK-MEL-5 > 100 µM | HT-29 > 100 µM | UO-31 > 100 µM | SR 99.3 µM | UACC-62 99.5 µM | UACC-257 > 100 µM

COC(=O)C(=O)C(CC(=O)Nc1ccc(C)cc1)C(=O)OC (centres undefined)
inactive: NCI-H522 > 100 µM | U-251 > 100 µM | Malme-3M > 100 µM | OVCAR-3 > 100 µM | M14 > 100 µM | OVCAR-4 > 100 µM | SF-295 > 100 µM | HCT-116 > 100 µM | HCC 2998 > 100 µM | SF-539 > 100 µM | EKVX > 100 µM | SK-MEL-5 > 100 µM | HT-29 > 100 µM | UO-31 > 100 µM | SR > 100 µM | UACC-62 > 100 µM | UACC-257 > 100 µM

O=C(Nc1ccccc1Br)c1cccc([N+](=O)[O-])c1O
inactive: NCI-H522 2.03 µM | U-251 2.85 µM | Malme-3M 2.48 µM | OVCAR-3 2.07 µM | M14 4.32 µM | OVCAR-4 3.01 µM | SF-295 3.87 µM | HCT-116 3.84 µM | HCC 2998 2.49 µM | SF-539 5.61 µM | EKVX 3.04 µM | SK-MEL-5 2.16 µM | HT-29 4.73 µM | UO-31 1.89 µM | SR 4.51 µM | UACC-62 1.91 µM | UACC-257 2.01 µM

O=C1C2=C(CCCC2)Nc2cccc3ncn1c23
inactive: NCI-H522 > 100 µM | U-251 > 100 µM | Malme-3M > 100 µM | OVCAR-3 > 100 µM | M14 > 100 µM | SF-295 > 100 µM | HCT-116 > 100 µM | HCC 2998 > 100 µM | SF-539 > 100 µM | EKVX > 100 µM | SK-MEL-5 > 100 µM | UO-31 > 100 µM | SR > 100 µM | UACC-62 > 100 µM | UACC-257 > 100 µM

COc1ccc2[nH]c3c(O)nncc3c2c1
inactive: NCI-H522 > 100 µM | U-251 > 100 µM | Malme-3M > 100 µM | OVCAR-3 > 100 µM | M14 > 100 µM | OVCAR-4 > 100 µM | SF-295 > 100 µM | HCT-116 > 100 µM | HCC 2998 > 100 µM | SF-539 > 100 µM | EKVX 8.45 µM | SK-MEL-5 > 100 µM | HT-29 > 100 µM | UO-31 > 100 µM | SR > 100 µM | UACC-62 53.2 µM | UACC-257 > 100 µM

Clc1ccc(C2=NOC3C4CCC(C4)C23)cc1 (centres undefined)
inactive: NCI-H522 59.8 µM | U-251 > 100 µM | Malme-3M > 100 µM | OVCAR-3 > 100 µM | M14 > 100 µM | OVCAR-4 > 100 µM | SF-295 73.1 µM | HCT-116 > 100 µM | HCC 2998 > 100 µM | SF-539 > 100 µM | EKVX > 100 µM | SK-MEL-5 > 100 µM | HT-29 > 100 µM | UO-31 > 100 µM | SR 61.2 µM | UACC-62 > 100 µM | UACC-257 > 100 µM

Cc1ccccc1NC(=O)CC(=O)n1nc(-c2ccccc2)c(/N=N/c2ccc([N+](=O)[O-])cc2)c1-c1ccccc1
inactive: NCI-H522 18.9 µM | U-251 14.1 µM | Malme-3M 23.8 µM | OVCAR-3 15.7 µM | M14 16.7 µM | OVCAR-4 23.6 µM | SF-295 17.4 µM | HCT-116 14.4 µM | HCC 2998 17.9 µM | SF-539 19.9 µM | EKVX 20.2 µM | SK-MEL-5 13 µM | HT-29 8.34 µM | UO-31 7.03 µM | SR 25.1 µM | UACC-62 13.1 µM | UACC-257 19.9 µM

Cc1c(C(Cc2ccccc2N(C)C(=O)/C=C\C(=O)O)c2c[nH]c3ccccc23)c2ccccc2n1C (centres undefined)
inactive: NCI-H522 15.1 µM | U-251 16.4 µM | Malme-3M 6.14 µM | OVCAR-3 12.3 µM | M14 15.4 µM | OVCAR-4 22.5 µM | SF-295 14.5 µM | HCT-116 15.1 µM | HCC 2998 16.3 µM | SF-539 16.6 µM | EKVX 16.3 µM | SK-MEL-5 14.9 µM | HT-29 15.5 µM | UO-31 14.5 µM | SR 16.9 µM | UACC-62 17.2 µM | UACC-257 15.7 µM

CC1=C(C(=O)NCc2ccccc2)C(c2ccccc2C)C(C(=O)NCc2ccccc2)=C(C)N1
inactive: NCI-H522 28.4 µM | U-251 24.5 µM | Malme-3M 72.6 µM | OVCAR-3 23.5 µM | M14 20.4 µM | OVCAR-4 27.2 µM | SF-295 29.7 µM | HCT-116 19 µM | HCC 2998 28.6 µM | SF-539 24.6 µM | EKVX 58.7 µM | SK-MEL-5 35.5 µM | HT-29 27.2 µM | UO-31 42.8 µM | SR 24.5 µM | UACC-62 17.2 µM | UACC-257 10.7 µM

Nc1ccc2c(c1)Oc1c(F)c(F)cc3c(=O)c(C(=O)O)cn-2c13
inactive: NCI-H522 29.9 µM | U-251 34.2 µM | Malme-3M 45.9 µM | OVCAR-3 22.1 µM | M14 81.5 µM | OVCAR-4 40.1 µM | HCT-116 24.2 µM | HCC 2998 > 100 µM | SF-539 39.2 µM | EKVX > 100 µM | SK-MEL-5 17.1 µM | HT-29 35.2 µM | UO-31 27.3 µM | SR 34.6 µM | UACC-62 31.3 µM

[N-]=[N+]=NC(c1cn(C2CC(O)C(CO)O2)c(=O)[nH]c1=O)C(Cl)Br (centres undefined)
inactive: NCI-H522 > 100 µM | U-251 > 100 µM | Malme-3M > 100 µM | SF-295 > 100 µM | HCT-116 > 100 µM | HCC 2998 > 100 µM | SF-539 > 100 µM | EKVX > 100 µM | SK-MEL-5 > 100 µM | HT-29 > 100 µM | UO-31 > 100 µM | SR > 100 µM

COC(=O)c1ccccc1NC(=O)C(=O)NNC(=O)c1ccncc1
inactive: NCI-H522 > 100 µM | Malme-3M > 100 µM | OVCAR-3 > 100 µM | M14 > 100 µM | OVCAR-4 > 100 µM | SF-295 > 100 µM | HCT-116 > 100 µM | HCC 2998 > 100 µM | SF-539 > 100 µM | EKVX > 100 µM | SK-MEL-5 > 100 µM | HT-29 > 100 µM | UO-31 > 100 µM | SR > 100 µM | UACC-62 > 100 µM | UACC-257 > 100 µM

Source: ChEMBL document CHEMBL1201862, “PubChem BioAssay data set” (2004)
